Assays:
[1] = test system: LFA-1 activation; test: LFA-1 activation staining (ICAM-1/Fc chimera, flow cytometry) of T cells activated by anti-CD3/CD28 bead; format: cell-based, human
Method: Half million CD4 T cells in 500 μl culture medium were treated with 5 μl of human IgG (Jackson Immuno Research, West Grove, Pa.) to block non-specific staining. Cells were stained with 10 μl (50 μg/ml) of human ICAM-1 Fc chimera (R&D System, Minneapolis, Minn.) for 20 min at 4° C. Cells were washed and blocked by 5 μl of mouse IgG (Jackson ImmunoResearch, West Grove, Pa.), followed by the addition of 10 μl of FITC labeled mouse anti-human Fc (Jackson ImmunoResearch, West Grove, Pa.), and incubated for 20 min at 4° C. Cells were finally washed and resuspended in 500 μl of 1% paraformaldehyde for flow cytometry.
Thus, the effect of Jas on T cell activity was determined. FIG. 3A illustrates inhibition of HIV-1 latent infection by Jas. Effects of Jas on LFA-1 activation also were tested. Jas treated or untreated resting T cells were activated by anti-CD3/CD28 bead and stained with human ICAM-1/Fc chimera and analyzed by flow cytometer. The effects of Jas on IL-2 secretion also were measured. […] Cells were treated with Jas for 2 hours, washed, infected with HIV-1 for 5 days, then activated by anti-CD3/CD28 bead. […] Following infection, cellular DNA was PCR amplified for viral late DNA and β-actin pseudogene. Cells were pre-activated with PHA plus IL-2, then treated and infected as in FIG. 3A. […] CEM-SS cell were treated and infected as in FIG. 3A. […]

[2] = test system: HIV-1; test: HIV-1 latent infection of resting CD4 T cells, viral replication assay (p24 ELISA) after anti-CD3/CD28 activation; format: cell-based, HIV-1NL4-3; details: for inhibition of HIV replication in resting T cells: 2 hours before infection
Method: Virus stocks of the HIV-1NL4-3 (Adachi et al. J Virol 59(2), 284-91 (1986)) were prepared by transfection of HeLa cells with cloned proviral DNA as described in Wu and Marsh (2001). Supernatant was harvested at 48 hours, and filtered through a 0.45 μm nitrocellulose membrane. Virus titer (TCID50) was measured by infection of a Rev-CEM indicator cell line which was constructed through stable integration of a Rev-dependent GFP expression lentiviral vector into CEM-SS. […] For infection of resting CD4 T cells, viruses were first titrated to determine minimal levels detectable by p24 ELISA in replication assays described below. Unless specified, for most replication assays, 10^3.5 to 10^4.5 TCID50 units of HIV-1 were used to infect 10^6 cells. For infection procedure, CD4 T cells were incubated with the virus for 2 hours, then washed twice with medium to remove unbound virus. Infected cells were resuspended into fresh RPMI 1604 medium supplemented with 10% heat-inactivated fetal bovine serum, penicillin (50 U/ml) and streptomycin (50 μg/ml) at a density of 10^6 per ml and incubated for 5 days without stimulation. Cells were activated at day 5 with anti-CD3/CD28 magnetic beads at 4 beads per cells. For viral replication assay, 10% of infected cells were taken at 1, 3, 5, 6, 7, 8, 9 days post infection. Cells were pelleted and the supernatant was saved for p24 ELISA. Levels of p24 in the supernatant were measured by using Coulter HIV-1 p24 Assay Kit (Beckman Coulter, Inc. Miami, Fla.). Plates were kinetically read using ELx808 automatic microplate reader (Bio-Tek Instruments, Inc. Winooski, Vt.) at 630 nm.
Resting CD4 T cells were treated with pertussis toxin (Sigma, St. Louis, Mo.) at a final concentration of 100 ng/ml for 2 hours, then infected with HIV-1. Following infection, cells were washed 2 to 3 times to remove cell-free virus and the inhibitor. Cells were treated with Jasplakinolide (Molecular Probes, Eugene, Oreg.) for 1 to 2 hours or Latrunculin A (Biomol, Plymouth Meeting, Pa.) for 5 minutes at various concentrations, washed twice with medium, then infected with HIV-1. Following infection, cells were washed twice to remove cell free virus. Cells were treated with 200 nM of Staurosporine (Biomol, Plymouth Meeting, Pa.) for 2 hours, then infected with HIV-1. Following infection, cells were washed twice to remove cell-free virus and the inhibitor.
Resting CD4 T cells were treated with S3 or Q104 for I to 2 hours, then infected with HIV-1. Following infection, cells were washed 2 to 3 times to remove cell-free virus and the peptides.
Effects of Jas on LFA-1 activation also were tested. Jas treated or untreated resting T cells were activated by anti-CD3/CD28 bead and stained with human ICAM-1/Fc chimera and analyzed by flow cytometer. The effects of Jas on IL-2 secretion also were measured. […] Cells were treated with Jas for 2 hours, washed, infected with HIV-1 for 5 days, then activated by anti-CD3/CD28 bead. […] Following infection, cellular DNA was PCR amplified for viral late DNA and β-actin pseudogene. Cells were pre-activated with PHA plus IL-2, then treated and infected as in FIG. 3A. […] CEM-SS cell were treated and infected as in FIG. 3A.

[3] = test system: F-actin; test: Competitive binding of phalloidin to F-actin; details: 120 nM
[4] = test system: CD4/CXCR4 distribution; test: Confocal microscopy of CD4 and CXCR4 distribution on resting CD4 T cells; format: cell-based, human; details: 120 nM, 2 hours
Source text: Stained cells were imaged using a Zeiss Laser Scanning Microscope (Thornwood, N.Y.), LSM 510 META, with a 40 NA 1.3 or 60 NA 1.4 oil Dic Plan-Neofluar objective. Samples were excited with two laser lines, 488 nm for GFP and 543 nm for Alexa 594. Images were simultaneously recorded in three channels: channel one: fluorescent emissions from 505 to 530 nm for GFP (green); channel two: emissions from 580 to 650 nm for Alexa 594 (red); channel three: DIC. Images were processed and analyzed by the LSM 510 META software.
FIG. 8 illustrates confocal microscopy of CD4 and CXCR4 distribution on resting CD4 T cells treated with 120 nM Jas. Resting CD4 T cells were treated with 120 nM of Jas for 2 hours, then fixed and stained with a FITC-labeled anti-human CD4 monoclonal antibody and a biotin-labeled anti-human CXCR4 monoclonal antibody followed by Alexa Fluor-594 labeled streptavidin (right panel). Untreated resting CD4 T cells were used as a control (left panel).

[5] = test system: HIV-1; test: HIV-1 infection of T cells pre-activated with PHA plus IL-2; format: cell-based, HIV-1NL4-3; details: similar Jas treatment (120 nM)
Method: Thus, the effect of Jas on T cell activity was determined. FIG. 3A illustrates inhibition of HIV-1 latent infection by Jas. Effects of Jas on LFA-1 activation also were tested. Jas treated or untreated resting T cells were activated by anti-CD3/CD28 bead and stained with human ICAM-1/Fc chimera and analyzed by flow cytometer. The effects of Jas on IL-2 secretion also were measured. […] Cells were treated with Jas for 2 hours, washed, infected with HIV-1 for 5 days, then activated by anti-CD3/CD28 bead. […] Following infection, cellular DNA was PCR amplified for viral late DNA and β-actin pseudogene. Cells were pre-activated with PHA plus IL-2, then treated and infected as in FIG. 3A. […] CEM-SS cell were treated and infected as in FIG. 3A. Effects of Jas on HIV-1 infection of resting T cells pre-stimulated with anti-CD4/CXCR4 bead (2 beads/cell) are shown in FIG. 3E. Pre-stimulated cells were treated and infected as in FIG. 3A.

SMILES: C/C1=C\[C@H](C)C[C@H](C)OC(=O)C[C@H](c2ccc(O)cc2)NC(=O)[C@@H](Cc2c(Br)[nH]c3ccccc23)N(C)C(=O)[C@H](C)NC(=O)[C@@H](C)C1 [Jas, Jasplakinolide]
- inhibition of LFA-1 activation ([1]; 120 nM and below): no detectable inhibition
- inhibition of LFA-1 activation ([1]; 3 1μM Jas): greatly inhibited
- inhibition of HIV replication in resting T cells ([2]; 24 nM): partial inhibition
- inhibition of HIV replication in resting T cells ([2]; 120 nM): Complete inhibition
- inhibition of HIV replication in resting T cells pre-stimulated with CD4/CXCR4 bead ([2]; 120 nM, pre-stimulation 2 beads/cell): completely abolished the inhibition
- inhibition of HIV replication in resting T cells ([2]; 600 nM): Complete inhibition
- inhibition of subsequent competitive binding of phalloidin to F-actin [3]: significantly inhibited
- CD4/CXCR4 distribution on the surface, treated vs untreated cells [4]: did not reveal any significant difference
- inhibition of HIV replication in pre-activated T cells [5]: no inhibition

— patent US7662547B2, “Compositions and methods for detecting and treating HIV infections” (priority 2006, dated 2010)
